Values quoted from earlier work as cited in patent US12263175B2, “Optimised dosage of diaminophenothiazines in populations” (WisTa Laboratories Ltd., priority 2018, dated 2025).

What was measured:
[1] = system: huntingtin derivative containing a polyglutamine stretch of 102 residues; settings: zebrafish; tested at 0, 10 and 100 μM; cited from earlier work
[2] = system: TDP-43 aggregates in SH-SY5Y cells; settings: 0.05 μM MT; cited from earlier work
[3] = phase 2 study, cited from earlier work

In the case of `CN(C)c1ccc2nc3ccc(=[N+](C)C)cc-3sc2c1` [MT, methylthioninium], the “Formation of aggregates of huntingtin derivative (polyglutamine stretch of 102 residues)” value [1] is given as “prevented the formation of such aggregates in zebrafish in a dose-dependent manner” and the “Reduction of the number of TDP-43 aggregates” value [2] is given as 50%.
In the case of `CN(C)c1ccc2nc3ccc(N(C)C)cc3[s+]c2c1.[Cl-]` [MTC, methylthioninium chloride], the “Efficacy at higher dose” value ([3]; 218 mg/day) is listed as “limited efficacy” and the “Minimum safe and effective dose” value [3] is listed as 138 mg/day.
